Consider 24 compounds from US5622962A, “5α-reductase inhibitors” (priority 1995, dated 1997).

Read-outs that look alike come from different tables or passages of the source.

Assay [1] deals with T1, Type I 5α-Reductase from Human Scalp (Homo sapiens, UniProt P18405).
T1 construct: Scalp punch biopsies from graft recipient sites were obtained from human hair transplant procedures; from tissue; host or cells: human scalp punch biopsies (hair transplant graft recipient sites), homogenate, 100,000×g pellet
T1 sequence (P18405 1-259): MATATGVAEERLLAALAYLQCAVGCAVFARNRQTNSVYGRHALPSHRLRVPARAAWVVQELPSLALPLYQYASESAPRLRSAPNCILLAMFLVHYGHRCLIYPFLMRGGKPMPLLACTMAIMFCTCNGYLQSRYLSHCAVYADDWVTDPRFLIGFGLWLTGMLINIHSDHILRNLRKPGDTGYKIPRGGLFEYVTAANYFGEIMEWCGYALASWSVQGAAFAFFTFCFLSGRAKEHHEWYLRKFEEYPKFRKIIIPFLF
Kind of assay: Human Type I 5α-reductase assay (conversion of [3H]-testosterone to 5α-reduced metabolites). The format is biochemical.

Assay [2] concerns the target T2, Type II 5α-Reductase from Human Prostate (Homo sapiens, UniProt P31213).
T2 construct: The same procedure as above was used for preparations using tissue from prostate surgery; from tissue; host or cells: human prostate tissue from surgery, homogenate, 100,000×g pellet
T2 sequence (P31213 1-254): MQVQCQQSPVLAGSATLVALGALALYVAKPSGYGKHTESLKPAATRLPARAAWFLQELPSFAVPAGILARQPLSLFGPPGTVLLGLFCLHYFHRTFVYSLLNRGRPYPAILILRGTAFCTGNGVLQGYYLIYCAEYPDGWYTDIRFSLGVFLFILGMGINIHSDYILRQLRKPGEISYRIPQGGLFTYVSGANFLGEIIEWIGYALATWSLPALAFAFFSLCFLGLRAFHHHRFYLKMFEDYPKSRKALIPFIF
As to the kind of experiment: Human Type II 5α-reductase assay (conversion of [3H]-testosterone to 5α-reduced metabolites). The class given is biochemical. The settings on record: for percent inhibition of Type II AR: 0.3 μM.

Where [3] appears, read: pH 7.5, 0.3 μM, 50 nM [3H]-testosterone, pH 7.5, 25°, 180 min, compared to control reaction mixtures, read-out: percent inhibition of Type I AR.
Setting [4] is: pH 5.5, 0.3 μM, sodium acetate pH 5.5, 25°, 30 min, compared to control reaction mixtures, read-out: percent inhibition of Type II AR.
[5] abbreviates: sodium acetate pH 5.5, 25°, 30 min, compared to control reaction mixtures.

Usually inhibition stands for how much of the control response was suppressed. As for `CN1C(=O)CC[C@]2(C)c3ccc(-c4ccc(Oc5ccccc5)cc4)cc3CC[C@@H]12` [Example 56, (+)-(4aR)-(10bR)-4-methyl-8-(4-phenoxyphenyl)-10b-methyl-1,2,3,4,4a,5,6,10b-octahydrobenzo[f]quinolin-3-one], the inhibition at 0.3 µM in assay [1] (setting [3]) worked out at 92%; in assay [2] (setting [4]), 3%.
For the compound `COc1ccc(Sc2ccc3c(c2)CC[C@H]2NC(=O)CC[C@]32C)cc1` [Example 13, (+)-(4aR)-(10bR)-8-(4-methoxyphenylthio)-10b-methyl-1,2,3,4,4a,5,6,10b-octahydrobenzo[f]quinolin-3-one], the inhibition at 0.3 µM in assay [1] (setting [3]) was 11%; in assay [2] (setting [4]), 22%.
`CN1C(=O)CC[C@]2(C)c3ccc(-c4ccccc4)cc3CC[C@@H]12` [Example 49, (+)-(4aR)-(10bR)-4-methyl-8-phenyl-10b-methyl-1,2,3,4,4a,5,6,10b-octahydrobenzo[f]quinolin-3-one]: the inhibition at 0.3 µM in assay [1] (setting [3]) came to 96%; in assay [2] (setting [4]), 4%.
Taken in the same sequence, the figures for `CN1C(=O)CC[C@]2(C)c3ccc(-c4nc5ccccc5s4)cc3CC[C@@H]12` [Example 252, (+)-(4aR)-(10bR)-4-methyl-8-(2-benzothiazolyl)-10b-methyl-1,2,3,4,4a,5,6,10b-octahydrobenzo[f]quinolin-3-one] were 89% and 54%.
`CN1C(=O)CC[C@]2(C)c3ccc(C(=O)NCc4ccccc4)cc3CC[C@@H]12` [Example 146, (+)-(4aR)-(10bR)-4-methyl-8-(benzylcarboxamido)-10b-methyl-1,2,3,4,4a,5,6,10b-octahydrobenzo[f]quinolin-3-one]: the figures for the inhibition at 0.3 µM in assay [1] (setting [3]) and in assay [2] (setting [4]) were 13% and 32%, respectively.
Taken in the same sequence, the figures for `CN1C(=O)CC[C@]2(C)c3ccc(-c4cccc(Cl)c4Cl)cc3CC[C@@H]12` [Example 73, (+)-(4aR)-(10bR)-4-methyl-8-(2,3-dichlorophenyl)-10b-methyl-1,2,3,4,4a,5,6,10b-octahydrobenzo[f]quinolin-3-one] were 87% and 16%.
Regarding `C[C@]12CCC(=O)N[C@@H]1CCc1cc(Sc3ccc4ccccc4n3)ccc12` [Example 19, (4aR)-(10bR)-8-(2-quinolinylthio)-10b-methyl-1,2,3,4,4a,5,6,10b-octahydrobenzo[f]quinolin-3-one], the inhibition at 0.3 µM in assay [1] (setting [3]) turned out to be 59%; in assay [2] (setting [4]), 56%.
As to `CCN(CC)C(=O)c1c(-c2ccc3c(c2)CC[C@H]2N(C)C(=O)CC[C@]32C)ccc2ccccc12` [Example 35, (+)-(4aR)-(10bR)-4-methyl-8-(2-[1-diethylcarboxamido]naphthyl)-10b-methyl-1,2,3,4,4a,5,6,10b-octahydrobenzo[f]-quinolin-3-one], the inhibition at 0.3 µM in assay [1] (setting [3]) was 17%; in assay [2] (setting [4]) it was 27%.
For the compound `CN1C(=O)CC[C@]2(C)c3ccc(-c4cccc(C(F)(F)F)c4)cc3CC[C@@H]12` [Example 80, (+)-(4aR)-(10bR)-4-methyl-8-(3-trifluoromethylphenyl)-10b-methyl-1,2,3,4,4a,5,6,10b-octahydrobenzo[f]quinolin-3-one], the inhibition at 0.3 µM in assay [1] (setting [3]) was 76%; in assay [2] (setting [4]) it was 29%.
On to `CN1C(=O)CC[C@]2(C)c3ccc(-c4c(F)cccc4F)cc3CC[C@@H]12` [Example 228, (+)-(4aR)-(10bR)-4-methyl-8-(2,6-difluorophenyl)-10b-methyl-1,2,3,4,4a,5,6,10b-octahydrobenzo[f]quinolin-3-one], for which the inhibition at 0.3 µM in assay [1] (setting [3]) was 77%; in assay [2] (setting [4]), 32%.
`CN1C(=O)CC[C@]2(C)c3ccc(-c4cccc(-c5ccccc5)c4)cc3CC[C@@H]12` [Example 55, (+)-(4aR)-(10bR)-4-methyl-8-(3-biphenyl)-10b-methyl-1,2,3,4,4a,5,6,10b-octahydrobenzo[f]quinolin-3-one]: the figures for the inhibition at 0.3 µM in assay [1] (setting [3]) and in assay [2] (setting [4]) were 68% and 11%, respectively.
On the same counts, the results for `CN1C(=O)CC[C@]2(C)c3ccc(C(=O)OCc4ccccc4)cc3CC[C@@H]12` [Example 144, (+)-(4aR)-(10bR)-4-methyl-8-benzyloxycarbonyl-10b-methyl-1,2,3,4,4a,5,6,10b-octahydrobenzo[f]quinolin-3-one] are 90% and 40%.
In the case of `CN1C(=O)CC[C@]2(C)c3ccc(Cc4ccccc4)cc3CC[C@@H]12` [Example 287, (4aR)-(10bR)-8-benzyl-4,10b-dimethyl-1,2,3,4,4a, 5,6, 10b-octahydrobenzo[f]quinolin-3-one], the inhibition at 0.3 µM in assay [1] (setting [3]) was found to be 82%; in assay [2] (setting [4]), 37%.
Taken in the same sequence, the figures for `CN1C(=O)CC[C@]2(C)c3ccc(-c4ccc(C(F)(F)F)cc4[N+](=O)[O-])cc3CC[C@@H]12` [Example 134, (+)-(4aR)-(10bR)-4-methyl-8-(2-nitro-4-trifluoromethylphenyl)-10b-methyl-1,2,3,4,4a,5,6,10b-octahydrobenzo[f]-quinolin-3-one] were 97% and 46%.
In the case of `CN1C(=O)CC[C@]2(C)c3ccc(-c4ccc([N+](=O)[O-])cn4)cc3CC[C@@H]12` [Example 202, (+)-(4aR)-(10bR)-4-methyl-8-(5-nitro-2-pyridinyl)-10b-methyl-1,2,3,4,4a,5,6,10b-octahydrobenzo[f]quinolin-3-one], the inhibition at 0.3 µM in assay [1] (setting [3]) was determined as 41%; in assay [2] (setting [4]) it was 48%.
Take `COc1ccccc1Sc1ccc2c(c1)CC[C@H]1N(C)C(=O)CC[C@]21C` [Example 104, (+)-(4aR)-(10bR)-4,10b-dimethyl-8-(2-methoxyphenylthio)-1,2,3,4,-4a,5,6,10b-octahydrobenzo[f]quinolin-3-one]: the figures for the inhibition at 0.3 µM in assay [1] (setting [3]) and in assay [2] (setting [4]) were 89% and 41%, respectively.
With `Cc1ccc2ccccc2c1-c1ccc2c(c1)CC[C@H]1N(C)C(=O)CC[C@]21C` [Example 72, (+)-(4aR)-(10bR)-4-methyl-8-(1-[2-methyl]naphthyl)-10b-methyl-1,2,3,4,4a,5,6,10b-octahydrobenzo[f]quinolin-3-one], the values for the inhibition at 0.3 µM in assay [1] (setting [3]) and in assay [2] (setting [4]) were 16% and 26%, respectively.
Take `CN(C)c1cccc2c(S(=O)(=O)Nc3cccc(-c4ccc5c(c4)CC[C@H]4N(C)C(=O)CC[C@]54C)c3)cccc12` [Example 91, (+)-(4aR)-(10bR)-4-methyl-8-[3-([5-dimethylamino-1-naphthyl]sulfonylamino)phenyl]-10b-methyl-1,2,3,4,4a,5,6,10b-octahydrobenzo[f]quinolin-3-one]: the inhibition at 0.3 µM in assay [1] (setting [3]) was determined as 87%; in assay [2] (setting [4]), 32%.
Take `CN1C(=O)CC[C@]2(C)c3ccc(-c4ccc5cc(OCc6ccccc6)ccc5c4)cc3CC[C@@H]12` [Example 62, (+)-(4aR)-(10bR)-4-methyl-8-(2-[6-benzyloxy]naphthyl)-10b-methyl-1,2,3,4,4a,5,6,10b-octahydrobenzo[f]quinolin-3-one]: the values for the inhibition at 0.3 µM in assay [1] (setting [3]) and in assay [2] (setting [4]) were 45% and 42%, respectively.
Taken in the same sequence, the figures for `CN1C(=O)C=C[C@]2(C)c3ccc(-c4cccc([N+](=O)[O-])c4)cc3CC[C@@H]12` [Example 118, (+)-(4aR)-(10bR)-4-methyl-8-(3-nitrophenyl)-10b-methyl-3,4,4a,5,6,10b-hexahydrobenzo[f]quinolin-3-one] were 25% and 43%.
In the case of `CN1C(=O)CC[C@]2(C)c3ccc(Sc4cccc(Cl)c4)cc3CC[C@@H]12` [Example 100, (+)-(4aR)-(10bR)-4,10b-dimethyl-8-(3-chlorophenylthio)-1,2,3,4,-4a,5,6,10b-octahydrobenzo[f]quinolin-3-one], the inhibition at 0.3 µM in assay [1] (setting [3]) is 96%; in assay [2] (setting [4]), 51%. Further, the “percent inhibition of Type II AR” value in assay [2] (setting [5]) is 34%.
Take `CN1C(=O)CC[C@]2(C)c3ccc(Sc4ccc5ccccc5c4)cc3CC[C@@H]12` [Example 98, (+)-(4aR)-(10bR)-4,10b-dimethyl-8-(2-naphthylthio)-1,2,3,4,-4a,5,6,10b-octahydrobenzo[f]quinolin-3-one]: the inhibition at 0.3 µM in assay [1] (setting [3]) is 76%; in assay [2] (setting [4]), 61%. The “percent inhibition of Type II AR” value in assay [2] (setting [5]) is recorded as 44%.
For the compound `CN1C(=O)CC[C@]2(C)c3ccc(/C=C\c4ccccc4)cc3CC[C@@H]12` [Example 285, (4aR)-(10bR)-4,10b-dimethyl-8-(2-phenylethenyl)-1,2,3,4,4a,5,6,10b-octahydrobenzo[f]quinolin-3-one], the inhibition at 0.3 µM was found to be 93% in assay [1] (pH 7.5, read-out: percent inhibition of Type I AR) and 36% in assay [2] (pH 5.5, read-out: percent inhibition of Type II AR).
For `CN1C(=O)CC[C@]2(C)c3ccc(Sc4cccc(F)c4)cc3CC[C@@H]12` [Example 109, (+)-(4aR)-(10bR)-4,10b-dimethyl-8-(3-fluorophenylthio)-1,2,3,4,4a,5,6,10b-octahydrobenzo[f]quinolin-3-one], the inhibition at 0.3 µM was determined as 97% in assay [1] (setting [3]) and 25% in assay [2] (setting [4]).
